Assay results published in patent US20110166149A1, “PTERIDINE DERIVATIVES FOR TREATING RESPIRATORY DISEASE” (TARGEGEN INC., priority 2008, published 2011).
Values joined by “and” are separate entries in the source; they are usually repeats but may differ in a detail not shown here. Equal values may be shown once. Read-outs that look alike come from different tables or passages of the source.

Experiments:
[1] = Solubility of Compound A; format: physicochemical
[2] = Aerodynamic particle size of nebulized suspensions, 7 stage impactor (Example 1); format: physicochemical; conditions: nebulized suspension
Protocol: 6,7-bis(3-hydroxyphenyl)-pteridine-2,4-diamine (Compound A) was formulated as a 20% suspension in a 5% tyloxapol solution in water. Particle size reduction was achieved using a colloid mill (magicLAB®, MK module, for 6 hours @ 12,000 rpm, while maintaining a temperature below 50° C.). Samples at 4, 0.4, 0.04 and 0.004% of compound A were prepared by dilution with DI water.
Nebulizations of the suspensions were carried out using a Pari LC Plus @ 3 LPM, using an active diluter at 5 LPM in a CH technologies nose-only exposure chamber. Aerodynamic particle size was determined by a 7 stage impactor from Intox at 1 LPM. Each stage extracted with acetonitrile:water 1:1 with 0.05% TFA and analyzed by HPLC against an external standard.

[3] = Estimated lung exposure level calculated from respirable dose (Example 1); conditions: 30 minute exposure assumed, mouse
Protocol: Estimated lung exposure levels were calculated based on the following assumptions: respirable dose collected from 7 stage impactor; 30 minute exposure time; mouse minute volume of 23 mL/min; mouse weight of 25 g; mouse lung weight of 250 mg (1% of body weight).

[4] = Lung exposure in mice, nose-only chamber nebulization (Example 3); format: in vivo, Balb/c mice; conditions: 30 min nebulization, immediately after
Protocol: A series of compositions for pulmonary delivery were prepared by making a 20% suspension of compound A in a 5% tyloxapol solution in water. Particle size reduction was achieved using a colloid mill (magicLAB®, MK module, for 6 hours @ 12,000 rpm, while maintaining a temperature below 50° C.). Samples at 4% compound A were prepared by dilution with DI water. A 0.4% compound A suspension in 0.1% tyloxapol solution, was made by dilution with SWFI (6.02 g of the 20% suspension was QS to 30.23 g with SWFI).
0.4% compound A suspension in 0.1% tyloxapol solution: 2.07 g of a 4% compound A suspension was diluted to 20 g with DI water.
0.04% compound A suspension in 0.01% tyloxapol solution: 2.03 g of a 0.4% compound A suspension was diluted to 20 g with DI water. 0.004% compound A suspension in 0.001% tyloxapol solution: 2.05 g of a 0.04% compound A suspension was diluted to 20 g with DI water.
Compositions were delivered via a nose-only chamber (CH Technologies) to Balb/c mice by nebulizing for 30 minutes the composition with a PARI LC plus at 3 LPM with a 5 LPM dilutor (of dry air), tissues, plasma and BALF (3 mL used of PBS) collected after sacrificing immediately after nebulization, and were analyzed by HPLC-MS.

[5] = system: ovalbumin (OVA) challenged mice; assay: Mouse airway resistance, methacholine challenge (Example 4); format: in vivo; conditions: aerosolized formulations, FIG. 4
Protocol: A series of compositions for pulmonary delivery were prepared by first preparing a 20% suspension of compound A in a 5% tyloxapol solution in water. Particle size reduction was achieved using a colloid mill (magicLAB®, MK module, for 6 hours @ 12,000 rpm, while maintaining a temperature below 50° C.). Samples at 4% compound A were prepared by dilution with DI water. A 0.4% compound A suspension in 0.1% tyloxapol solution was made by dilution with SWFI (6.02 g of the 20% suspension was QS to 30.23 g with SWFI) and the following suspensions were also prepared: • […] in 0.01% tyloxapol solution: 2.52 g of a 0.4% compound A suspension was diluted to 100 g with SWFI water. • 0.01% compound A suspension in 0.01% tyloxapol solution: 10 g of a 0.1% compound A suspension was diluted to 100 g with SWFI water. • 0.001% compound A suspension in 0.01% tyloxapol solution 3: 10 g of a 0.1% compound A suspension was diluted to 100 g with SWFI water. […] Airway resistance in the model is induced via a methacholine challenge. Airway resistance is both a diagnostic and a hallmark of respiratory diseases such as asthma and COPD and the reduction of airway resistance is considered a beneficial outcome.

[6] = Particle size of nebulized solution, 7 stage cascade impactor (Example 5); format: physicochemical; conditions: nebulized solution ~3.3 mg/mL, pH ~3, tyloxapol/PVP 90F
Protocol: 36 mg of compound A was dissolved with the aid of 0.5 N HCl (QS to 1 g) under mixing and heat. 200 μL of this solution was mixed using a sonicator bath, if necessary with a separately prepared solution containing 1.8 mg of a 0.02% tyloxapol/2% PVP 90F and 34 μL of a 2 N NaOH, to give a final concentration of ˜3.3 mg/mL of compound A at a pH of ˜3.

[7] = Stability / precipitation of compound A solutions at pH ~3 (Examples 5, 6); format: physicochemical
Protocol: 36 mg of compound A was dissolved with the aid of 0.5 N HCl (QS to 1 g) under mixing and heat. 200 μL of this solution was mixed using a sonicator bath, if necessary with a separately prepared solution containing 1.8 mg of a 0.02% tyloxapol/2% PVP 90F and 34 μL of a 2 N NaOH, to give a final concentration of ˜3.3 mg/mL of compound A at a pH of ˜3. […] 200 μL of the above solution was mixed using a sonicator bath, if necessary with a solution containing 1.8 mg of a 0.02% tyloxapol/2% PVP 90F and 10 μL of a 2 N NaOH, to give a final concentration of ˜5 mg/mL of compound A at a pH of ˜3. This solution will start precipitating ˜20 min.

[8] = formulation conc. 0.004%, individual animals 3A-3E
[9] = formulation conc. 0.04%, individual animals 2A-2E
[10] = formulation conc. 0.40%, individual animals 1A-1E

- dissolution in organic solvents ([1]; DMSO and selected aprotic solvents with high dielectric constants): readily dissolves
- solubility ([1]; between pH of 3 and 9): negligible solubility
- solubility ([1]; water, aqueous buffer, pH below 2 and above 10, read-out: water solubility): > 20 mg/mL
- MMAD (GSD) ([2]; 0.004% Compound A): 0.64 (2.35)
- MMAD (GSD) ([2]; 0.04% Compound A): 0.69 (1.74)
- MMAD (GSD) ([2]; 0.4% Compound A): 0.83 (1.87)
- MMAD (GSD) ([2]; 4% Compound A, MMAD = mass median aerodynamic diameter, GSD = geometric standard deviation): 1.35 (1.98)
- Estimated lung conc. ([3]; 0.004% Compound A suspension): 0.1 µg/g
- Estimated lung conc. ([3]; 0.04% Compound A suspension): 1.4 µg/g
- Estimated lung conc. ([3]; 0.4% Compound A suspension): 11 µg/g
- Estimated lung conc. ([3]; 4% Compound A suspension): 75 µg/g
- Compound A concentration BALF ([4]; formulation conc. 0.004%, Mean): 22.9 ± 34.0 ng/mL
- Compound A concentration Lung ([4]; formulation conc. 0.004%, Mean): 0.12 ± 0.02 µg/g
- Compound A concentration Plasma ([4]; formulation conc. 0.004%, Mean): <LLOQ
- Compound A concentration Plasma [4, 8]: <LLOQ
- Compound A concentration BALF ([4]; formulation conc. 0.04%, Mean): 71.6 ± 38.4 ng/mL
- Compound A concentration Lung ([4]; formulation conc. 0.04%, Mean): 1.48 ± 0.49 µg/g
- Compound A concentration Plasma [4, 9]: <LLOQ (4×) and 6.37 ng/mL
- Compound A concentration BALF ([4]; formulation conc. 0.40%, Mean): 1870 ± 1902 ng/mL
- Compound A concentration Lung ([4]; formulation conc. 0.40%, Mean): 6.7 ± 1.1 µg/g
- Compound A concentration Plasma ([4]; formulation conc. 0.40%, Mean): 5.16 ± 2.39 ng/mL
- GSD [6]: 2.1
- MMAD [6]: ~1 μm
- solution stability ([7]; ~3.3 mg/mL, pH ~3, tyloxapol/PVP 90F (Example 5)): stable for more than an hour
- time to start of precipitation ([7]; ~5 mg/mL, pH ~3, tyloxapol/PVP 90F (Example 6)): ~20 min
SMILES: Nc1nc(N)c2nc(-c3cccc(O)c3)c(-c3cccc(O)c3)nc2n1 [Compound A, 6,7-bis(3-hydroxyphenyl)-pteridine-2,4-diamine]
- Compound A concentration BALF [4, 8]: 83.6 ng/mL and 10.0 ng/mL and 7.84 ng/mL and 7.82 ng/mL and 4.99 ng/mL
- Compound A concentration Lung [4, 8]: 0.14 μg/g and 0.12 μg/g and 0.10 μg/g (2×) and 0.13 μg/g
- Compound A concentration BALF [4, 9]: 62.6 ng/mL and 93 ng/mL and 92.1 ng/mL and 102 ng/mL and 8.19 ng/mL
- Compound A concentration Lung [4, 9]: 2.3 µg/g and 1.0 µg/g and 1.5 µg/g and 1.4 µg/g and 1.3 µg/g
- Compound A concentration BALF [4, 10]: 1370 ng/mL and 5240 ng/mL and 1200 ng/mL and 804 ng/mL and 737 ng/mL
- Compound A concentration Lung [4, 10]: 8.2 μg/g and 32.1(?) μg/g and 6.1 μg/g and 6.5 μg/g and 5.9 μg/g
- Compound A concentration Plasma [4, 10]: 2.51 ng/mL and 3.98 ng/mL and 8.46 ng/mL and 6.73 ng/mL and 4.1 ng/mL
- airway resistance [5]: reduced airway resistance
